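In this assay, cells in 96-well plates receive the compound at five concentrations for 48 hours. Endpoints are linearly interpolated between the surrounding concentrations. TGI denotes the concentration required for complete inhibition of growth.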
Experiments:
Test in all cases: NCI anticancer screen, dose series, 48 h
ACHN renal = tested on: ACHN renal
HOP-62 NSCLC = tested on: HOP-62 NSCLC
HCT-15 colon = tested on: HCT-15 colon
SK-MEL-2 melanoma = tested on: SK-MEL-2 melanoma
OVCAR-4 ovarian = tested on: OVCAR-4 ovarian
NCI-H23 lung = tested on: NCI-H23 lung
SF-539 CNS = tested on: SF-539 CNS
MDA-N = tested on: MDA-N
CAKI-1 renal = tested on: CAKI-1 renal
RXF 393 renal = tested on: RXF 393 renal
M14 melanoma = tested on: M14 melanoma

Compound	TGI (ACHN renal)	TGI (HOP-62 NSCLC)	TGI (HCT-15 colon)	TGI (SK-MEL-2 melanoma)	TGI (OVCAR-4 ovarian)	TGI (NCI-H23 lung)	TGI (SF-539 CNS)	TGI (MDA-N)	TGI (CAKI-1 renal)	TGI (RXF 393 renal)	TGI (M14 melanoma)
COc1cccc2c1C(=O)c1ccc3cc(CO)cc(O)c3c1C2=O	3.7 µM	6.33 µM	1.17 µM	2.99 µM	2.03 µM	1.18 µM	1.44 µM	0.352 µM	7.18 µM	7.09 µM	1.68 µM
CC1(C)OC2CN(C(=O)OCc3ccccc3)C(CO)C2O1 (stereo unspecified)	> 100 µM	> 100 µM	> 100 µM	> 100 µM	> 100 µM	> 100 µM	> 100 µM	> 100 µM	> 100 µM	> 100 µM	> 100 µM
CC1(C)OC[C@@]2([C@@H]3CC[C@@H](C3)C2(C)C)N1O	> 100 µM	> 100 µM	> 100 µM	> 100 µM	> 100 µM	> 100 µM	> 100 µM	> 100 µM	> 100 µM	> 100 µM	> 100 µM
OCC1CCCCN1Cc1nc2ccc(Cl)cc2[nH]1 (stereo unspecified)	> 100 µM	> 100 µM	> 100 µM	> 100 µM	> 100 µM	> 100 µM	> 100 µM	> 100 µM	> 100 µM	> 100 µM	> 100 µM
CCOC(=O)NNC1(SC)NC(=O)c2c(cc(Cl)oc2=O)O1 (stereo unspecified)	4.79 µM	25.6 µM	5.28 µM	24 µM	18.9 µM	13.1 µM	4.57 µM	22.2 µM	8.02 µM	6.93 µM	11.7 µM
O/N=C1\CC2(N3CCOCC3)CCC1(Cc1ccccc1)CC2	63.4 µM	47.8 µM	> 100 µM	85 µM	84.8 µM	> 100 µM	58.3 µM	> 100 µM	> 100 µM	42 µM	> 100 µM
COc1ccc(CN=C2Nc3ccncc3S(=O)(=O)N2c2ccccc2)cc1	> 100 µM	> 100 µM	> 100 µM	> 100 µM	> 100 µM	> 100 µM	33.9 µM	> 100 µM	> 100 µM	> 100 µM	> 100 µM
COc1ccc(C2c3cc4c(cc3OC(N3CCOCC3)C2C)OCO4)c(OC)c1 (stereo unspecified)	93.8 µM	31.5 µM	> 75.9 µM	21.7 µM	> 100 µM	> 67.9 µM	9.64 µM	5.25 µM	62.1 µM	10.7 µM	21.2 µM
C#CCSc1cnc2ccccc2c1Sc1c[nH]c2ccccc2c1=O	36.7 µM	> 100 µM	> 100 µM	53.5 µM	> 100 µM	> 100 µM	> 100 µM	> 100 µM	> 100 µM	36.1 µM	> 100 µM
CCOC(=O)C1(Cc2ccccc2)CCN(C(=O)c2ccccc2)C2C1C2(Cl)Cl (stereo unspecified)	54.8 µM	87.2 µM	> 100 µM	31.1 µM	> 100 µM	77 µM	38.5 µM	39.6 µM	75 µM	36.5 µM	34.6 µM
COc1ccc(/C=N/n2c(Cc3ccc(Cl)cc3)n[nH]c2=O)cc1	> 100 µM	33.9 µM	> 100 µM	61.5 µM	> 100 µM	> 100 µM	> 100 µM	> 100 µM	> 100 µM	35.1 µM	> 100 µM
CC1=NN(C(=O)CC(=O)Nc2cccc(Cl)c2)C(=O)C1N=Nc1ccc(S(=O)(=O)c2ccc(N=NC3C(=O)N(C(=O)CC(=O)Nc4cccc(Cl)c4)N=C3C)cc2)cc1 (stereo unspecified)	> 100 µM	> 100 µM	> 100 µM	> 100 µM	> 100 µM	> 100 µM	55.6 µM	> 100 µM	> 100 µM	> 100 µM	> 100 µM
C(/C=N/NC1=NCCN1)=N\NC1=NCCN1	> 100 µM	> 100 µM	> 100 µM	> 100 µM	> 100 µM	> 100 µM	> 100 µM	> 100 µM	> 100 µM	> 100 µM	> 100 µM
c1ccc(-c2cc(-c3cc(-c4ccccc4)n[nH]3)[nH]n2)cc1	> 100 µM	> 100 µM	> 100 µM	> 100 µM	> 100 µM	> 100 µM	> 100 µM	> 100 µM	> 100 µM	> 100 µM	> 100 µM
CCOC(=O)CC[C@@H](NC(=O)c1ccc(NCc2ccc3nc(OC)c(OC)nc3c2)cc1)C(=O)OCC	58.2 µM	> 100 µM	> 100 µM	40.6 µM	> 100 µM	> 100 µM	45.8 µM	> 85.2 µM	> 100 µM	> 58.1 µM	32 µM
C/C=C/[C@@H]1O[C@H](CC#C[Si](C)(C)C)[C@@]2(C=O)C(C)=CC[C@H](C(C)C)[C@@H]12	39.9 µM	82.7 µM	48.5 µM	33.5 µM	51.7 µM	49.6 µM	49.7 µM	43.9 µM	5.13 µM	36.8 µM	37.2 µM

Reference: PubChem BioAssay (NCI)
